Experiments:
Format in all cases: in vivo
[1] = system: root lesion nematode (RLN), Pratylechus penetrans; assay: Root Lesion Nematode (RLN) in-vitro mortality test; conditions: mortality after 48 hours, about 25 °C, 0.5% DMSO in water
Experimental: The following Root Lesion Nematode (RLN) test was conducted to compare the activities of S1, R1, and B1.
We carried out an in-vitro experiment to compare activity of S1, R1, and B1 with each other against the root lesion nematode (RLN), Pratylechus penetrans. Each of S1, R1, and B1 were tested at six rates: 62.5, 15.6, 4, 1, 0.25, and 0 ppm (UTC) with three replications of each treatment. Equal volume of nematode suspension was added to an equal volume of each of S1, R1, and B1 dissolved in 0.5% DMSO (dimethyl sulfoxide) in water in 25 mL vials. The treated nematode suspension was incubated at room temperature (about 25 °C) on a shaker (95 RPM). Aliquots of 1 mL of the nematode suspension was evaluated under a microscope for mortality after 48 hours. RLN were counted, and the number of dead and active nematodes was used to calculate % mortality from which lethal concentration (LC) values were generated.

[2] = system: root knot nematode (RKN), Meloidogyne incognita; assay: Root Knot Nematode (RKN) test on cucumber seedlings in greenhouse, Galling Index converted to % control, EC by probit analysis; conditions: based on % control from Galling Index, cucumber, 4,000 J2s, 14 days in Greenhouse, about 27 °C
Experimental: The following Root Knot Nematode (RKN) test was conducted to compare the activities of S1, R1, and B1.
We conducted an experiment to evaluate comparative bioactivity of S1, R1, and B1 against the root knot nematode (RKN), Meloidogyne incognita. Each of S1, R1, and B1 were tested at […]: 125, 62.5, 31.25, 15.6, 7.8, 3.9, and 2 ppm. Cucumber seeds (Cucumis sativus) were planted in a sandy loam soil in 3-inch pots. After 6 days of germination, the seedlings were treated with the test compounds dissolved in 5% acetone in water. The treated plants were inoculated with 4,000 second stage juveniles (J2s) of M. incognita. Each experimental unit was replicated three times. The inoculated plants were kept in a Greenhouse for 14 days (about 27 °C) before evaluating the amount of root damage (galls) called Galling Index (GI) based on a scale of 0 - 10; where 0 = no galls (100% control), and 10 = maximum galls (no control). The GI was converted to % control using the formula (10 - GI) x 10; where GI = Gall Index. Effective concentration (EC) values based on the % control of the nematode by S1, R1 and B1 were calculated by probit analysis.

[3] = system: soybean cyst nematode (SCN): Heterodera glycines second stage juveniles (J2); assay: Soybean Cyst Nematode (SCN) in-vitro mortality test; conditions: mortality after 48 hours of incubation, about 25 °C, 0.5% DMSO in water; probit analysis
Experimental: The following Soybean Cyst Nematode (SCN) test was conducted to compare the activities of S1, R1, and B1.
We carried out an in-vitro experiment to compare activity of S1, R1, and B1 with each other against the soybean cyst nematode (SCN): Heterodera glycines second stage juveniles (J2). Each of S1, R1, and B1 were tested at six rates: 62.5, 15.6, 4, 1, 0.25, and 0 ppm (untreated control, UTC) with three replications of each treatment. Equal volume of nematode suspension was added to an equal volume of compound dissolved in 0.5% DMSO (dimethyl sulfoxide) in water. The nematode plus compound was incubated at room temperature (about 25 °C) on a shaker at 95 revolutions per minutes (RPM). Aliquots of 0.5 milliliters (mL) of the nematode suspension were evaluated under a microscope for mortality after 48 hours of incubation. SCN J2s were counted, and the number of dead and active nematodes was used to calculate % SCN mortality which was used to generate lethal concentration (LC) values by probit analysis.

M. incognita = assay: Residuality test in soil: treated soil aged four weeks, then cucumber seedlings transplanted and inoculated; conditions: 1250 g ai/ha applied to bare sandy loam soil, four weeks before transplanting and inoculation; 14 days; four replicates
Experimental: The molecules in Example Two were compared in a residuality test.
A residuality test was conducted to compare the residual control or persistence of S 1, R1, C1, C2, C3, C4, and C5 in soil. Each compound was applied to a bare sandy loam soil (without plant or nematode) in a 3-inch pot at 1250 g ai/ha. The treated soils were kept in a Greenhouse (temperature 27 °C) under regular irrigation for four weeks. At the end of the four weeks, six-day old cucumber (Cucumis sativus) seedlings were transplanted into the treated soil and inoculated with 4,000 second stage juveniles of M. incognita. Each treatment was replicated four times. The inoculated plants were kept in a Greenhouse for 14 days (temperature 27 °C) before evaluating the amount of root damage (galls) called Galling Index (GI) based on a scale of 0 - 10; where 0 = no galls (100% nematode control), and 10 = maximum galls (no nematode control). The GI were converted to % control using the formula ((10 - GI) x 10); where GI = Gall Index. The data were analyzed by Analysis of Variance using JMP (John's Macintosh Project) statistical software and the means were separated using Tukey's HSD (α = 0.05).

[4] = system: root knot nematode, Meloidogyne incognita; assay: Root knot nematode comparative bioactivity test at a single rate, drench application on cucumber seedlings; conditions: 600 g ai/ha, 14 days after inoculation, (10 - GI) x 10, three replicates
Experimental: We carried out an experiment to evaluate comparative bioactivity of S 1, C1, C2, C3, C4, and C5 against the root knot nematode, Meloidogyne incognita. Each compound was tested at 600 grams of active ingredient per hectare (g ai/ha) and was replicated three times. Cucumber seeds (Cucumis sativus) were planted in a sandy loam soil in 3-inch pots. After six (6) days of planting, the seedlings were treated with the test compounds dissolved in 5% acetone in water by drench application. The plants were inoculated with 4,000 second stage juveniles (J2s) of M. incognita. The inoculated plants were kept in a Greenhouse for 14 days (temperature 27 °C) before evaluating the amount of root damage (galls) called Galling Index (GI) based on a scale of 0 - 10; where 0 = no galls (100% nematode control), and 10 = maximum galls (no nematode control). The GI was converted to % nematode control using the formula ((10 - GI) x 10); where GI = Gall Index. The data were analyzed by Analysis of Variance using JMP (John's Macintosh Project) statistical software and the means were separated using Tukey's HSD (α = 0.05).

Compound | LC50 (ppm) [1] | EC50 (ppm) [2] | LC50 (ppm) [3] | Mean Percent Control (M. incognita) | Mean Percent Control [4]
CCC(CC)C(C)NC(=O)c1ccoc1Cl (racemic) [Molecule B1, 2-chloro-N-(3-ethylpentan-2-yl)furan-3-carboxamide] | 24.72 ppm | 16.84 ppm | 23.28 ppm |  | 
CC(C)C[C@H](C)NC(=O)c1ccoc1Cl [Molecule C2] |  |  |  | 25.0% | 54%
CC(C)[C@H](C)NC(=O)c1ccoc1Cl [Molecule C3] |  |  |  | 22.5% | 67%
C[C@H](NC(=O)c1ccoc1Cl)C1CCCCC1 [Molecule C4] |  |  |  | 2.5% | 25%
C[C@H](NC(=O)c1ccoc1Cl)C1CCCC1 [Molecule C5] |  |  |  | 22.5% | 50%
CCC(CC)[C@@H](C)NC(=O)c1ccoc1Cl [Molecule R1, (R)-2-chloro-N-(3-ethylpentan-2-yl)furan-3-carboxamide] | >62.5 ppm | >125 ppm | >62.5 ppm | 7.5% | 
CCC(CC)[C@H](C)NC(=O)c1ccoc1Cl [Molecule S1, (S)-2-chloro-N-(3-ethylpentan-2-yl)furan-3-carboxamide] | 6.89 ppm | 4.95 ppm | 1.799 ppm | 77.5% | 84%
